Assay results reported in US20260294845A1, “Uses of Adrenalone to Manage Cardiotoxicity or Cardiovascular Disorders” (Emory University, priority 2023, published 2026).
Entries after “also recorded” stand apart in the source; their conditions may differ.

Legend:
hiPSC-CMs [1] = assay: MitoTracker Red staining (mitochondrial content and activity) of carfilzomib-treated hiPSC-CMs, high-content imaging; format: cell-based, human; details: carfilzomib alone, 24 h, IMR-90 hiPSC-CMs
Description: MitoTracker™ Red staining was performed in IMR-90 hiPSC-CMs treated with CFZ with or without 4H10 for 24 hours.
(§1) A human induced pluripotent cell line (hiPSC line IMR90™, WiCell Research Institute) was fed daily on Matrigel™-coated plates with a defined medium for hiPSC culture, mTeSR1 medium. For CM differentiation, hiPSCs were induced using a growth factor-driven differentiation protocol as reported in Jha et al. Efficient differentiation of cardiomyocytes from human pluripotent stem cells with growth factors. Methods Mol Biol, 2015, 1299, 115-131. On the day of induction (day 0), medium was replaced with RPMI 1640 medium supplemented with 2% B27 minus insulin (a cell culture supplement) containing 100 ng/ml activin A. After induction for 24 h, the medium was replaced with fresh RPMI supplemented with 2% B27 minus insulin containing 10 ng/ml BMP4. From day 4 of differentiation, the medium was replaced with RPMI supplemented with 2% B27. On day 5, the cells were dissociated and reseeded into AggreWell400™ plates to acquire cardiac spheres. After 24 h, the cardiac spheres formed were collected and transferred to low-adhesion dishes for suspension culture. The medium was changed every other day. Cardiac spheres typically started beating spontaneously by day 7 to 9.
Mitochondria play a crucial role in energy production, cellular metabolism, and the regulation of cell death. Experiments indicate carfilzomib induces mitochondrial dysfunction in hiPSC-CMs. To assess the potential mitigating effects of 4H10 on carfilzomib-induced mitochondrial dysfunction, hiPSC-CMs were treated with carfilzomib alone or co-treated with 4H10 at various concentrations. Mitochondria were then visualized using MitoTracker™ Red dyes, which can accumulate in active mitochondria and allow for the measurement of mitochondrial content and activity in live cells.

hiPSC-CMs [2] = assay: Cell viability of hiPSC-CMs treated with carfilzomib with or without 4H10 (CellTiter-Blue); format: cell-based, human; details: carfilzomib 5 μM alone, 24 h, IMR-90 hiPSC-CMs, compared with DMSO
Description: Cell viability was analyzed after IMR-90 hiPSC-CMs were treated with carfilzomib (CFZ) with or without 4H10 for 24 hours. (n=5 cultures).
as §1
Cardiomyocytes derived from human pluripotent stem cells (hiPSC-CMs) were provide a new platform for the studies of cancer drug-induced side effects and therapies. Using these cells, lead molecules were identified indicating protective properties on cardiomyocytes from the toxic effect of chemotherapy agents and ethanol (EtOH). […] Oxidative stress is a common molecular mechanism for cardiotoxicity induced by chemotherapy including proteosome inhibitors.
Consistently, treatment of hiPSC-CMs induced cell death and cytotoxicity. To examine if 4H10 could protect cardiomyocytes from carfilzomib-induced cytotoxicity, hiPSC-CMs were treated with carfilzomib at 5 μM alone or together with 4H10 at various concentrations for 24 h and then examined cell viability using the CellTiter-Blue Cell Viability Assay. Cells treated with DMSO (vehicle) were used as a control.

proteasome [3] = assay: Proteasome activity in RPMI8226 cells after carfilzomib with or without 4H10; format: cell-based; details: carfilzomib, 24 h, compared to DMSO
Description: (§2) (top) Proteasome activity of IMR-90 hiPSC-CMs was measured after the cells were treated with CFZ with or without 4H10 for 24 hours. (bottom, right, left) Proteasome activity and cell viability of RPMI8226 cells (cancer cells) were measured after the cells were treated with CFZ with or without 4H10 for 24 hours.
(§3) Experiments were designed to determine the effects of carfilzomib and 4H10 on proteasome activity and cell viability of RPMI8226 cell line, which has been investigated for the efficacy tests of carfilzomib in […].

hiPSC-CMs [4] = assay: Effects of chemotherapeutic agents on function of hiPSC-CMs; format: cell-based, human; details: carfilzomib treatment
hiPSC-CMs [5] = assay: Intracellular oxidative stress (ROS) of carfilzomib-treated hiPSC-CMs, DCFDA/H2DCFDA assay; format: cell-based, human; details: carfilzomib 5 μM alone, 24 h, SCVI hiPSC-CMs
Description: The quantification of oxidative stress was performed using DCFDA staining of SCVI hiPSC-CMs treated with Cfz with or without 4H10 for 24 hours.
The induction of oxidative stress is a crucial mechanism through which proteasome inhibitors induce apoptosis. To investigate if 4H10 could alleviate carfilzomib-induced increase of oxidative stress in cardiomyocytes, hiPSC-CMs were exposed to carfilzomib at 5 μM alone or together with 4H10 at various concentrations for 24 h. The production of cellular reactive oxygen species (ROS) was then measured using DCFDA/H2DCFDA assay kit.

proteasome [6] = assay: Proteasome activity in hiPSC-CMs after carfilzomib with or without 4H10; format: cell-based, human; details: carfilzomib, 24 h, IMR-90 hiPSC-CMs, compared with DMSO
Description: as §2
The proteasome, responsible for the regulated degradation of proteins, is a key cellular component targeted by carfilzomib as part of its mechanism of action in cancer therapy. Therefore, in addition to validation of cardioprotective effects of 4H10 on cell viability and mitochondrial function, it is crucial to examine if 4H10 compromises the proteasome inhibition efficacy of carfilzomib.

[7] = carfilzomib, serum; read-out: maximum (or peak) serum concentration, Cmax; cited from earlier work
RPMI8226 cells = assay: Cell viability of RPMI8226 cells after carfilzomib with or without 4H10; format: cell-based; details: carfilzomib, 24 h, compared to DMSO
Description: as §2, §3

patients = details: among the proteosome inhibitors; cited from earlier work
hiPSC-CMs [8] = details: carfilzomib; Forghani et al., 2021; cited from earlier work

Compound: CC(C)C[C@H](NC(=O)[C@H](CCc1ccccc1)NC(=O)CN1CCOCC1)C(=O)N[C@@H](Cc1ccccc1)C(=O)N[C@@H](CC(C)C)C(=O)[C@@]1(C)CO1 [carfilzomib]
- mitochondrial mass and activity (MitoTracker Red fluorescence intensity) (hiPSC-CMs [1]): reduction in mitochondrial mass and activity
- cell viability (cytotoxicity) after carfilzomib (hiPSC-CMs [2]): caused cytotoxicity; also recorded: significant decrease in cell viability
- proteasome activity in RPMI8226 cells (proteasome [3]): suppressed
- Ca^2+ handling of hiPSC-CMs (hiPSC-CMs [4]): negatively affects
- contractility of hiPSC-CMs (hiPSC-CMs [4]): negatively affects
- mitochondrial function of hiPSC-CMs (hiPSC-CMs [4]): negatively affects
- traction forces of hiPSC-CMs (hiPSC-CMs [4]): negatively affects
- DCFDA fluorescence intensity (oxidative stress) (hiPSC-CMs [5]): significant increase in DCFDA fluorescence intensity
- cellular proteasome activity (proteasome [6]): significant decrease in cellular proteasome activity
- Cmax [7]: 5.88 µM
- viability of RPMI8226 cells (RPMI8226 cells): significantly decreased the viability
- cardiotoxicity in clinic (patients): highest cardiotoxicity in clinic
- molecular and functional alterations of hiPSC-CMs (hiPSC-CMs [8]): causes molecular and functional alterations
